Where two headings read alike, the source gives them in different places.
Experiments:
[1] = molecular target: human orexin-1 receptor (Homo sapiens (Human), UniProt O43613); assay: In vitro intracellular calcium measurements (FLIPR), antagonistic activity on orexin-1 receptor; assay type: cell-based; settings: read-out: IC50 OX1
Method: (§1) In Vitro Assay: Intracellular Calcium Measurements:
(§2) Chinese hamster ovary (CHO) cells expressing the human orexin-1 receptor and the human orexin-2 receptor, respectively, are grown in culture medium (Ham F-12 with L-Glutamine) containing 300 μg/mL G418, 100 U/mL penicillin, 100 μg/mL streptomycin and 10% heat inactivated fetal calf serum (FCS). The cells are seeded at 20′000 cells/well into 384-well black clear bottom sterile plates (Greiner). The seeded plates are incubated overnight at 37° C. in 5% CO2.
(§3) Within the Fluorescent Imaging Plate Reader (FLIPR Tetra, Molecular Devices), antagonists are added to the plate in a volume of 10 μL/well, incubated for 120 min and finally 10 μL/well of agonist is added. Fluorescence is measured for each well at 1 second intervals, and the height of each fluorescence peak is compared to the height of the fluorescence peak induced by 3 nM orexin-A with vehicle in place of antagonist. […] Optimized conditions were achieved by adjustment of pipetting speed and cell splitting regime. The calculated IC50 values may fluctuate depending on the daily cellular assay performance. Fluctuations of this kind are known to those skilled in the art.

[2] = molecular target: human orexin-2 receptor (Homo sapiens (Human), UniProt O43614); assay: In vitro intracellular calcium measurements (FLIPR), antagonistic activity on orexin-2 receptor; assay type: cell-based; settings: read-out: IC50 OX2
Method: as §1, §2, §3

[3] = CHO cells expressing human orexin-1 receptor, FLIPR, 3 nM orexin-A agonist, 120 min antagonist incubation, geometric mean if determined several times
[4] = CHO cells expressing human orexin-2 receptor, FLIPR, 3 nM orexin-A agonist, 120 min antagonist incubation, geometric mean if determined several times

Chain of human orexin-1 receptor (O43613 whole entry): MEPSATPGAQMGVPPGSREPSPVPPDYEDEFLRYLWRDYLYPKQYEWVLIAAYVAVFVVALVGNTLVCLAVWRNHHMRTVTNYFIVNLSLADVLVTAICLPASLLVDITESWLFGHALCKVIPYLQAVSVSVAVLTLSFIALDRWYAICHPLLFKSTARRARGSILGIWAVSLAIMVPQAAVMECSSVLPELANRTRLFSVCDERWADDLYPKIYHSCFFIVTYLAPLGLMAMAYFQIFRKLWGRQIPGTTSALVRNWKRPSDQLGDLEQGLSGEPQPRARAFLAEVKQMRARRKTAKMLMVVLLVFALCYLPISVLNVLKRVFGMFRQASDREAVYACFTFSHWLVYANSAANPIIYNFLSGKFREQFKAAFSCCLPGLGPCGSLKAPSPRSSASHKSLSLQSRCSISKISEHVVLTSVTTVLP
Chain of human orexin-2 receptor (O43614 whole entry): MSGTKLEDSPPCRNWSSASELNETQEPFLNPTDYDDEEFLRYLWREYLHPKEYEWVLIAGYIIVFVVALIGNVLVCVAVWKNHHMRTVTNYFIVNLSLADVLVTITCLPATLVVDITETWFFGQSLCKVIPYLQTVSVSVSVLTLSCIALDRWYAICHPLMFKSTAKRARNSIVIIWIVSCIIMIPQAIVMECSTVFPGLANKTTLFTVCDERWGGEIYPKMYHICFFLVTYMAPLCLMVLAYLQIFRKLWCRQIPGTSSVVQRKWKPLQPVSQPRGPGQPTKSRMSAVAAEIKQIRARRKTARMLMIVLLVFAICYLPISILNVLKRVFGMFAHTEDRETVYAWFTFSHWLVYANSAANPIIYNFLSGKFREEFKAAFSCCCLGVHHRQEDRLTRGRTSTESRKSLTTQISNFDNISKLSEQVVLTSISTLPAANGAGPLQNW

Structure (SMILES): Cc1ccc(-n2nccn2)c(C(=O)N2CCO[C@@H](C)[C@H]2Cc2cccc(-n3nccn3)c2)c1 (single isomer, unassigned) [Example 162, [(2S,3R)-2-Methyl-3-(3-[1,2,3]triazol-2-yl-benzyl)-morpholin-4-yl]-(5-methyl-2-[1,2,3]triazol-2-yl-phenyl)-methanone or [(2R,3R)-2-Methyl-3-(3-[1,2,3]triazol-2-yl-benzyl)-morpholin-4-yl]-(5-methyl-2-[1,2,3]triazol-2-yl-phenyl)-methanone]
- IC50 [1, 3]: 24 nM
- IC50 [2, 4]: 2530 nM

Structure (SMILES): Cc1cccc(C(=O)N2CCO[C@@H](C)[C@H]2Cc2cccc(-n3nccn3)c2)c1-n1nccn1 (single isomer, unassigned) [Example 164, [(2S,3R)-2-Methyl-3-(3-[1,2,3]triazol-2-yl-benzyl)-morpholin-4-yl]-(3-methyl-2-[1,2,3]triazol-2-yl-phenyl)-methanone or [(2R,3R)-2-Methyl-3-(3-[1,2,3]triazol-2-yl-benzyl)-morpholin-4-yl]-(3-methyl-2-[1,2,3]triazol-2-yl-phenyl)-methanone]
- IC50 [1, 3]: 29 nM
- IC50 [2, 4]: 4040 nM

Structure (SMILES): Cc1ccc(-n2nccn2)c(C(=O)N2CCO[C@H](C)[C@H]2Cc2cccc(-n3nccn3)c2)c1 (single isomer, unassigned) [Example 167, [(2R,3R)-2-Methyl-3-(3-[1,2,3]triazol-2-yl-benzyl)-morpholin-4-yl]-(5-methyl-2-[1,2,3]triazol-2-yl-phenyl)-methanone or [(2S,3R)-2-Methyl-3-(3-[1,2,3]triazol-2-yl-benzyl)-morpholin-4-yl]-(5-methyl-2-[1,2,3]triazol-2-yl-phenyl)-methanone]
- IC50 [1, 3]: 19 nM
- IC50 [2, 4]: 2380 nM

Structure (SMILES): COc1ccc(C[C@@H]2COCCN2C(=O)c2ccccc2-n2nccn2)cc1-c1cccs1 [Example 10, [(R)-3-(4-Methoxy-3-thiophen-2-yl-benzyl)-morpholin-4-yl]-(2-[1,2,3]triazol-2-yl-phenyl)-methanone]
- IC50 [1, 3]: 0.5 nM
- IC50 [2, 4]: 31 nM

Structure (SMILES): O=C(c1ccccc1-n1nccn1)N1CCOC[C@@H]1Cc1cccc(-n2nccn2)c1 [Example 13, [(S)-3-(3-[1,2,3]Triazol-2-yl-benzyl)-morpholin-4-yl]-(2-[1,2,3]triazol-2-yl-phenyl)-methanone]
- IC50 [1, 3]: 966 nM
- IC50 [2, 4]: 4440 nM

Structure (SMILES): Cc1ccc(-n2nccn2)c(C(=O)N2CCOC[C@H]2Cc2cccc(-c3cccnc3)c2)c1 [Example 25, (5-Methyl-2-[1,2,3]triazol-2-yl-phenyl)-[(R)-3-(3-pyridin-3-yl-benzyl)-morpholin-4-yl]-methanone]
- IC50 [1, 3]: 11 nM
- IC50 [2, 4]: 1400 nM

Structure (SMILES): Cc1ccc(-n2nccn2)c(C(=O)N2CCOC[C@H]2Cc2cccc(-n3cccc3)c2)c1 [Example 38, (5-Methyl-2-[1,2,3]triazol-2-yl-phenyl)-[(R)-3-(3-pyrrol-1-yl-benzyl)-morpholin-4-yl]-methanone]
- IC50 [1, 3]: 1 nM
- IC50 [2, 4]: 131 nM

Structure (SMILES): Cc1ccnc(-c2cccc(C[C@@H]3COCCN3C(=O)c3ccccc3-n3nccn3)c2)n1 [Example 40, {(R)-3-[3-(4-Methyl-pyrimidin-2-yl)-benzyl]-morpholin-4-yl}-(2-[1,2,3]triazol-2-yl-phenyl)-methanone]
- IC50 [1, 3]: 34 nM
- IC50 [2, 4]: 762 nM

Structure (SMILES): Cc1ccc(-n2nccn2)c(C(=O)N2CCOC[C@H]2Cc2cccc(-c3cnccn3)c2)c1 [Example 41, (5-Methyl-2-[1,2,3]triazol-2-yl-phenyl)-[(R)-3-(3-pyrazin-2-yl-benzyl)-morpholin-4-yl]-methanone]
- IC50 [1, 3]: 8 nM
- IC50 [2, 4]: 1040 nM

Structure (SMILES): Cc1ccc(-n2nccn2)c(C(=O)N2CCOC[C@H]2Cc2cccc(-c3cccs3)c2)c1 [Example 45, (5-Methyl-2-[1,2,3]triazol-2-yl-phenyl)-[(R)-3-(3-thiophen-2-yl-benzyl)-morpholin-4-yl]-methanone]
- IC50 [1, 3]: 0.1 nM
- IC50 [2, 4]: 119 nM

Structure (SMILES): O=C(c1ccccc1-n1nccn1)N1CCOC[C@H]1Cc1cccc(-c2cccs2)c1 [Example 46, [(R)-3-(3-Thiophen-2-yl-benzyl)-morpholin-4-yl]-(2-[1,2,3]triazol-2-yl-phenyl)-methanone]
- IC50 [1, 3]: 0.5 nM
- IC50 [2, 4]: 163 nM

Structure (SMILES): O=C(c1ccccc1-n1nccn1)N1CCOC[C@H]1Cc1ccc(O)c(-c2ncccn2)c1 [Example 55, [(R)-3-(4-Hydroxy-3-pyrimidin-2-yl-benzyl)-morpholin-4-yl]-(2-[1,2,3]triazol-2-yl-phenyl)-methanone]
- IC50 [1, 3]: 27 nM
- IC50 [2, 4]: 2010 nM

Structure (SMILES): COc1ccc(C[C@@H]2COCCN2C(=O)c2c(C)cccc2-n2nccn2)cc1-c1ncon1 [Example 63, [(R)-3-(4-Methoxy-3-[1,2,4]oxadiazol-3-yl-benzyl)-morpholin-4-yl]-(2-methyl-6-[1,2,3]triazol-2-yl-phenyl)-methanone]
- IC50 [1, 3]: 9 nM
- IC50 [2, 4]: 49 nM

Structure (SMILES): Cc1ccc(C(=O)N2[C@H](Cc3cccc(-n4nccn4)c3)COC[C@H]2C)c(-n2nccn2)c1 [Example 69, [(3R,5R)-3-Methyl-5-(3-[1,2,3]triazol-2-yl-benzyl)-morpholin-4-yl]-(4-methyl-2-[1,2,3]triazol-2-yl-phenyl)-methanone]
- IC50 [1]: 0.9 nM
- IC50 [2]: 314 nM

Structure (SMILES): Cc1cccc(C(=O)N2[C@H](Cc3cccc(-n4nccn4)c3)COC[C@H]2C)c1-n1nccn1 [Example 70, [(3R,5R)-3-Methyl-5-(3-[1,2,3]triazol-2-yl-benzyl)-morpholin-4-yl]-(3-methyl-2-[1,2,3]triazol-2-yl-phenyl)-methanone]
- IC50 [1, 3]: 5 nM
- IC50 [2, 4]: 2610 nM

Structure (SMILES): Cc1cccc(C(=O)N2[C@H](Cc3cccc(-n4nccn4)c3)COC[C@@H]2C)c1-n1nccn1 [Example 72, [(3S,5R)-3-Methyl-5-(3-[1,2,3]triazol-2-yl-benzyl)-morpholin-4-yl]-(3-methyl-2-[1,2,3]triazol-2-yl-phenyl)-methanone]
- IC50 [1, 3]: 8 nM
- IC50 [2, 4]: 2460 nM

Structure (SMILES): Cc1cc(C(=O)N2[C@H](Cc3cccc(-n4nccn4)c3)COC[C@@H]2C)c(-n2nccn2)cc1C [Example 74, (4,5-Dimethyl-2-[1,2,3]triazol-2-yl-phenyl)-[(3S,5R)-3-methyl-5-(3-[1,2,3]triazol-2-yl-benzyl)-morpholin-4-yl]-methanone]
- IC50 [1, 3]: 11 nM
- IC50 [2, 4]: 355 nM

Structure (SMILES): Cc1cc(C(=O)N2CCOC[C@H]2Cc2ccc(C)c(-c3ncon3)c2)c(-n2nccn2)cc1C [Example 79, (4,5-Dimethyl-2-[1,2,3]triazol-2-yl-phenyl)-[(R)-3-(4-methyl-3-[1,2,4]oxadiazol-3-yl-benzyl)-morpholin-4-yl]-methanone]
- IC50 [1, 3]: 0.4 nM
- IC50 [2, 4]: 13 nM

Structure (SMILES): O=C(c1cc(F)c(F)cc1-n1nccn1)N1CCOC[C@H]1Cc1cccc(-c2ncon2)c1 [Example 80, (4,5-Difluoro-2-[1,2,3]triazol-2-yl-phenyl)-[(R)-3-(3-[1,2,4]oxadiazol-3-yl-benzyl)-morpholin-4-yl]-methanone]
- IC50 [1, 3]: 28 nM
- IC50 [2, 4]: 645 nM

Structure (SMILES): O=C(c1cccc(F)c1-n1nccn1)N1CCOC[C@H]1Cc1cccc(-c2ncon2)c1 [Example 82, (3-Fluoro-2-[1,2,3]triazol-2-yl-phenyl)-[(R)-3-(3-[1,2,4]oxadiazol-3-yl-benzyl)-morpholin-4-yl]-methanone]
- IC50 [1, 3]: 41 nM
- IC50 [2, 4]: 1140 nM

Structure (SMILES): O=C(c1ccc(Cl)cc1-n1nccn1)N1CCOC[C@H]1Cc1cccc(-c2ncon2)c1 [Example 86, (4-Chloro-2-[1,2,3]triazol-2-yl-phenyl)-[(R)-3-(3-[1,2,4]oxadiazol-3-yl-benzyl)-morpholin-4-yl]-methanone]
- IC50 [1, 3]: 42 nM
- IC50 [2, 4]: 2650 nM

Structure (SMILES): O=C(c1cc(F)ccc1-n1nccn1)N1CCOC[C@H]1Cc1cccc(-c2ncon2)c1 [Example 88, (5-Fluoro-2-[1,2,3]triazol-2-yl-phenyl)-[(R)-3-(3-[1,2,4]oxadiazol-3-yl-benzyl)-morpholin-4-yl]-methanone]
- IC50 [1, 3]: 30 nM
- IC50 [2, 4]: 893 nM

Structure (SMILES): Cc1cc(C)c(-n2nccn2)c(C(=O)N2CCOC[C@H]2Cc2cccc(-c3ncon3)c2)c1 [Example 89, (3,5-Dimethyl-2-[1,2,3]triazol-2-yl-phenyl)-[(R)-3-(3-[1,2,4]oxadiazol-3-yl-benzyl)-morpholin-4-yl]-methanone]
- IC50 [1, 3]: 7 nM
- IC50 [2, 4]: 420 nM

Structure (SMILES): Cc1cc(-n2nccn2)c(C(=O)N2CCOC[C@H]2Cc2cccc(-n3nccn3)c2)cc1Cl [Example 103, (5-Chloro-4-methyl-2-[1,2,3]triazol-2-yl-phenyl)-[(R)-3-(3-[1,2,3]triazol-2-yl-benzyl)-morpholin-4-yl]-methanone]
- IC50 [1, 3]: 0.7 nM
- IC50 [2, 4]: 47 nM

Structure (SMILES): Cc1cc(C(=O)N2CCOC[C@H]2Cc2cc(-n3nccn3)ccc2F)c(-n2nccn2)cc1C [Example 128, (4,5-Dimethyl-2-[1,2,3]triazol-2-yl-phenyl)-[(R)-3-(2-fluoro-5-[1,2,3]triazol-2-yl-benzyl)-morpholin-4-yl]-methanone]
- IC50 [1, 3]: 0.7 nM
- IC50 [2, 4]: 30 nM

Structure (SMILES): O=C(c1c(F)cccc1-n1nccn1)N1CCOC[C@H]1Cc1cc(-n2nccn2)ccc1F [Example 136, [(R)-3-(2-Fluoro-5-[1,2,3]triazol-2-yl-benzyl)-morpholin-4-yl]-(2-fluoro-6-[1,2,3]triazol-2-yl-phenyl)-methanone]
- IC50 [1, 3]: 37 nM
- IC50 [2, 4]: 574 nM

Reference: US9150566B2, “2-(1,2,3-triazol-2-yl)benzamide and 3-(1,2,3-triazol-2-YL)picolinamide derivatives as orexin receptor antagonists” (ACTELION PHARMACEUTICALS LTD., priority 2011, dated 2015)
